Measurements: article PMC2854131 (PLoS ONE, 2010)
Where two headings read alike, the source gives them in different places.

Assays:
in vivo = settings: Balb/c, mouse, ip, 2 mg/kg
[1] = target: T1, recombinant BoNTAe (BoNTA endopeptidase) (Clostridium botulinum, UniProt P0DPI0); settings: cited from earlier work
BoNTA = BoNTA (Clostridium botulinum, UniProt P0DPI0); design: species or system Balb/c mice; settings: mouse, in vivo
[2] = target: T1, recombinant BoNTAe (BoNTA endopeptidase); assay: biochemical; settings: read-out: % BoNTAe inhibition
[3] = Balb/c, mouse, in vivo, ip, 2 mg/kg
[4] = mouse, in vivo
physchem = settings: water

| SMILES | AUC(0-t) (in vivo) | Cmax (in vivo) | half-life (in vivo; T1/2) | half-life (in vivo; in vivo half-life (t1/2)) | serotype specificity of BoNTAe inhibition, in words [1] | Ki ([1]; read-out: Ki app) | Ki ([1]; read-out: Ki^app) | survival during the 12-hour period after the BoNTA challenge, in words (BoNTA) | treated mice that died 48 hours after the toxin challenge (BoNTA) | inhibition at 20 µM [2] | C24 (concentration 24 hours after one dose) [3] | acute toxicity to mice, in words [4] | protection (survival) of mice 24 hours after the toxin challenge (BoNTA) | protection (survival) of mice 48 hours after the toxin challenge (BoNTA) | protection (survival) of mice during the 12-hour period after the toxin challenge (BoNTA) | solubility (physchem) |
| --- | --- | --- | --- | --- | --- | --- | --- | --- | --- | --- | --- | --- | --- | --- | --- | --- |
| NCCCCn1c(-c2ccccc2)cc2ccc(C(=O)c3cc(CC(=O)NO)c(-c4cccc(O)c4)s3)cc21 [Inhibitor H3H] | 1550 ng·h/mL | 497 ng/mL | 4.35 h | ~4 h | serotype-specific | 3.8 ± 0.77 µM | 4 µM | all mice treated with any of the three inhibitors survived | 40% | 78 ± 4% | 3.0 ng/mL | no acute toxicity | – | – | – | – |
| NCCCCn1c(-c2ccccc2)c(F)c2ccc(C(=O)c3cc(CC(=O)NO)c(-c4ccc(O)cc4)s3)cc21 [Inhibitor F4H, 2-(5-(1-(4-Aminobutyl)-3-fluoro-2-phenyl-1H-indole-6-carbonyl)-2-(4-hydroxyphenyl)thiophen-3-yl)-N-hydroxyacetamide] | 1390 ng·h/mL | 738 ng/mL | 6.5 h | ~6 h | – | – | – | all mice treated with any of the three inhibitors survived | 40% | 82 ± 6% | <0.5 ng/mL | no acute toxicity | 70% | 60% | 100% | ≥ 5 mM |
| NCCCCn1c(-c2ccccc2)c(F)c2ccc(C(=O)c3cc(CC(=O)NO)c(-c4cccc(N)c4)s3)cc21 [Inhibitor F3A, 2-(5-(1-(4-Aminobutyl)-3-fluoro-2-phenyl-1H-indole-6-carbonyl)-2-(3-aminophenyl)thiophen-3-yl)-N-hydroxyacetamide] | 1390 ng·h/mL | 256 ng/mL | 6.25 h | ~6 h | – | – | – | all mice treated with any of the three inhibitors survived | 90% | 47 ± 1% | 7.0 ng/mL | no acute toxicity | – | – | – | ≥ 5 mM |
| NCCCCn1c(-c2ccccc2)cc2ccc(C(=O)c3cc(CC(=O)NO)c(-c4ccccc4)s3)cc21 [APH, reference compound] | – | – | – | – | – | – | 7 µM | – | – | – | – | – | – | – | – | – |
